These results are taken from patent US5273972A, “[(2-diakylaminomethyl)-3-quinuclidinyl]-benzamides and benzoates” (priority 1992, dated 1993).

The subject of one experiment is cisplatin-induced emesis. Kind of experiment: Cisplatin-induced emesis in dogs (antiemetic). Format: in vivo, dog. To be noted: for inhibition in vivo at 1 mg/kg: Canis lupus familiaris, iv, 5 h, read-out: % inhibition of cisplatin-induced emesis. As for the experimental part:
The procedure used to test compounds of the present invention for antiemetic properties is a modification of the method of Gylys et al, Res. Commun, Chem. Pathol. Pharm., 23, 61(1979).
Adult, mongrel, unfasted dogs of both sexes were randomly assigned into treatment groups, with each treatment group consisting of four dogs. On the dosing day all dogs were given cisplatin, 3.0 mg/kg, intravenously. Sixty minutes later, the dogs in the control treatment group were given deionized water, 0.1 ml/kg intravenously. The dogs in the test group were given a test compound at an appropriate dose intravenously. All doses were administered as a solution by means of a syringe and needle, and each dog's emetic episodes were recorded for 5 hours after the administration of cisplatin.

Another experiment concerns emesis. To be noted: reported by Mikhlina et al, Khim-Farmastsevt. Zh. 10 (1976); cited from earlier work.
The test system of the next experiment is dopamine D2 -receptor. The settings on record: reported in USSR Pat. No. SU-414-261; cited from earlier work.
In another experiment the test system is gastric emptying. Kind of experiment: Gastric emptying of a test meal in fasted rats. Format: in vivo. The settings on record: fasted rat, 9.0 mg/kg IP 30 min before test meal; measured 60 min after the meal. As for the experimental part: The procedure used to test compounds of the present invention for gastric motility enhancing activity was that of Droppleman et al, J. Pharmacol. Methods, 4, 227(1980). Each animal was dosed intraperitoneally (9.0 mg/kg) with a test compound or control. After 30 minutes each animal was given 3 ml of a methylcellulose-based test meal formulation. Sixty minutes after administration of the test meal, each animal was killed by cervical dislocation, and the stomach was removed and weighed. The stomach was cut open, rinsed and dried, and reweighed. The difference between the full and empty weights (amount of meal remaining in stomach) was subtracted from the original test meal weight to determine the meal amount emptied from the stomach during the test period.

For experiment [1], the system named is 5-HT (serotonin)-induced contractions of the guinea pig ileum. Nature of the experiment: Blockade of serotonin-induced contractions of guinea pig ileum (5-HT antagonist activity). Format: cell-based. The settings on record: 10^-6 M serotonin.
Experiment [2] concerns exploratory light/dark behavior. Kind of experiment: Anxiolytic model, two-compartment exploratory light/dark test in mice. Format: in vivo. The settings on record: mouse, 10 mg/kg IP, 5 minute period; vehicle control 29. From the text:
The method has been described by Young and Johnson, Soc. Neurosci. Abs., 1988, 14, 207 and is a modification of the procedures described by Costall and Naylor, Brit. J. Pharmacol. 1988, 93, 985-993; and Crawley, Pharmacol. Biochem. and Behav. 1981, 15, 695-699. A two compartment light-dark activity monitoring device (Digiscan Model RXWZCM16, Omnitech Electronics,Inc., Columbus, Ohio) is used. A 90W light source located 30 cm above the box provides light to the apparatus. Behavioral testing was conducted in a sound attenuated, darkened room illuminated with a red light (25W red bulb) only.
Each animal (mouse) received a dose of either the test, reference, or control article. The mouse was placed at the center of the illuminated area and its behavioral activity tallied over a 5 minute period by use of a Digiscan analyzer. Behavioral variables recorded include: the time spent in the lit and dark areas, the number of rearings in the lit and dark areas, the number of locomotor activity counts in the lit and dark areas, the number of transitions between the lit and dark or dark and lit areas, rearing time in the lit and dark areas, the latency to make the first transition from the lit to the dark areas, locomotor time in the lit and dark areas, and resting time in the lit and dark areas. Appropriate statistical analyses for each measure were performed. […]

For “2-(1-Piperidinylmethyl)-1-azabicyclo[2.2.2]oct-3-yl 1-methyl-1H-indole-3-carboxylate cis isomer [XIII (cis isomer)]”, the “% inhibition of cisplatin-induced emesis” value in the experiment on cisplatin-induced emesis (dog, 1.0 mg/kg IV given 60 min after cisplatin 3.0 mg/kg IV, emetic episodes recorded for 5 hours) worked out at 34%. `COc1ccc(S(N)(=O)=O)cc1C(=O)NC1CN2CCC1CC2` (stereo not drawn) [5-aminosulfonyl-N-(1-azabicyclo-[2.2.2]oct-3-yl)-2-methoxybenzamide]: the anti-emetic activity entry with emesis was “not to have anti-emetic activity”. The neuroleptic activity result in the experiment on dopamine D2 -receptor is “neuroleptic activity”. `COc1cc(N)c(Cl)cc1C(=O)NC1C2CCN(CC2)C1CN(C)C` (stereo not drawn) [Example I, 4-Amino-5-chloro-N-[2-[(dimethylamino)methyl]-1-azabicyclo[2.2.2]oct-3-yl]-2-methoxy-benzamide]: the inhibition in vivo at 1 mg/kg in the experiment with cisplatin-induced emesis worked out at 96%. For the same compound, the “% change in meal emptied” value in the experiment with gastric emptying is recorded as “+36%”. With `COc1cc(N)c(Cl)cc1C(=O)NC1C2CCN(CC2)C1CN1CCCCC1` (stereo not drawn) [Example IV, 4-Amino-5-chloro-2-methoxy-N-[2-(1-piperidinylmethyl)-1-azabicyclo[2.2.2]oct-3-yl]benzamide], in the experiment on cisplatin-induced emesis, the inhibition in vivo at 1 mg/kg turned out to be 94%. For the same compound, the “pA2 against serotonin-induced contractions” value in experiment [1] came to 6.6. As for `CNc1cc(OC)c(C(=O)NC2C3CCN(CC3)C2CN2CCCCC2)cc1Cl` (stereo not drawn) [Example V, 5-Chloro-2-methoxy-4-(methylamino)-N-[2-(1-piperidinylmethyl)-1-azabicyclo[2.2.2]oct-3-yl]benzamide], in the experiment with cisplatin-induced emesis, the inhibition in vivo at 1 mg/kg was 99%. For the same compound, the “% Time Spent In Lit Area” value in experiment [2] is on record as 51%. As for `CSCCOc1cc(N)c(Cl)cc1C(=O)NC1C2CCN(CC2)C1CN(C)C` (stereo not drawn) [II, 4-Amino-5-chloro-N-[2-[(dimethylamino)methyl]-1-azabicyclo[2.2.2]oct-3-yl]-2-[2-(methylthio)ethoxy]benzamide], the inhibition in vivo at 1 mg/kg with cisplatin-induced emesis worked out at 47%. On the same count and under the same terms, the figure for `CNc1cc(OC)c(C(=O)NC2C3CCN(CC3)C2CN(C)C)cc1Cl` (stereo not drawn) [III, 5-Chloro-N-[2-[(dimethylamino)methyl]-1-azabicyclo[2.2.2]oct-3-yl]-2-methoxy-4-(methylamino)benzamide] is 73%.

For the compound `COc1cc(N)c(Cl)cc1C(=O)NC1C2CCN(CC2)C1CN1CCCC1` (stereo not drawn) [VI, 4-Amino-5-chloro-2-methoxy-N-[2-(1-pyrrolidinylmethyl)-1-azabicyclo[2.2.2]oct-3-yl]benzamide], in the experiment with cisplatin-induced emesis, the inhibition in vivo at 1 mg/kg turned out to be 87%. Also, the “% change in meal emptied” value in the experiment on gastric emptying is given as “+33%”. Consider `CNc1cc(OC)c(C(=O)NC2C3CCN(CC3)C2CN2CCCC2)cc1Cl` (stereo not drawn) [VII, 5-Chloro-2-methoxy-4-(methylamino)-N-[2-(1-pyrrolidinylmethyl)-1-azabicyclo[2.2.2]oct-3-yl]benzamide], for which the inhibition in vivo at 1 mg/kg in the experiment on cisplatin-induced emesis was determined as 87%. Take `COc1cc(N)c(Cl)cc1C(=O)NC1C2CCN(CC2)C1CN1CCOCC1` (stereo not drawn) [XI, 4-Amino-5-chloro-2-methoxy-N-[2-(4-morpholinylmethyl)-1-azabicyclo[2.2.2]oct-3-yl]benzamide]: the inhibition in vivo at 1 mg/kg with cisplatin-induced emesis was found to be 21%.
